The text below walks through data of ChEMBL document CHEMBL1833838, “Pancreatic anticancer activity of a novel geranylgeranylated coumarin derivative” (2011).

Active and inactive are the calls of the source. The calls are words filed in the database; no cut-off is given here.

Assay [1] has as its system PANC-1. The experiment in a line: Cytotoxicity against human PANC1 cells in nutrient-deprived condition assessed as cell death at 100 uM after 24 hrs by WST-8 assay. In kind it is functional.
Assay [2] concerns PANC-1. Put plainly: Cytotoxicity against human PANC1 cells in nutrient-deprived condition assessed as cell death at 6.25 uM after 24 hrs by WST-8 assay. The class given is functional.
Assay [3] deals with PANC-1. Put plainly: Induction of apoptosis in human PANC1 cells in nutrient-deprived condition assessed as morphological changes at 3.125 to 12.5 uM up to 24 hrs by microscopy. The class given is functional, cell-based.
The test system of assay [4] is PANC-1. Put plainly: Cytotoxicity against human PANC1 cells in nutrient-deprived condition at 0.01 ug/mL after 24 hrs by WST-8 assay. In kind it is functional, cell-based. Background: Tetrazolium dyes change colour on reduction, which living cells bring about.
The subject of assay [5] is PANC-1. The experiment in a line: Cytotoxicity against human PANC1 cells in nutrient-deprived condition assessed as cell death at 200 uM after 24 hrs by WST-8 assay. The class given is functional.

Consider `CC(C)=CCC/C(C)=C/COc1ccc2ccc(=O)oc2c1`, for which the result in assay [1] was Active.

For `CC(C)=CCC/C(C)=C/CC/C(C)=C/CC/C(C)=C/COc1ccc2ccc(=O)oc2c1`, the outcome in assay [1] and in assay [3] was Active. Further, in assay [2], the Activity is recorded as 100%.

For the compound `CC(C)=CCOc1ccc2ccc(=O)oc2c1` [7-PRENYLOXYCOUMARIN], the Activity in assay [1] came out at 100%.

With `CC(C)=CCC/C(C)=C/CC/C(C)=C/COc1cc2ccccc2oc1=O`, the outcome in assay [1] was Active.

For the compound `CC(C)(OC(=O)/C=C/c1ccc(O)cc1)[C@@H]1Cc2c(ccc3ccc(=O)oc23)O1`, the result in assay [4] was Active.

On to `O=c1ccc2ccc(OC3CCCC3)cc2o1`, for which, in assay [5], the Activity came to 100%.
